Results on eleven compounds are retold here after US9951011B2, “Carbazole compounds for in vivo imaging” (priority 2013, dated 2018).

Like-named read-outs stand apart in the source and are kept apart here.

In general, Ki refers to the dissociation constant of the complex between target and ligand, obtained from inhibition or displacement.

Experiment [1] deals with TSPO. The settings on record: low:high affinity ratio; Compounds 1 and 2 used as racemates.
Procedure: (§1) Membrane protein was prepared from human platelets obtained from 4 donor whole blood samples. […] Platelet pellets were homogenised in 10 ml buffer 1 (0.32 mM sucrose, 5 mM Tris base, 1 mM MgCl2, pH 7.4, 4° C.). The homogenates were centrifuged at 48,000×g for 15 minutes at 4° C. in a Beckman J2-MC centrifuge. The supernatant was removed and pellets were re-suspended in at least 10 ml buffer 2 (50 mM Tris base, 1 mM MgCl2, pH 7.4, 4° C.) and washed by centrifugation at 48,000×g for 15 min at 4° C. in buffer 2. Membranes were suspended in 2 ml buffer 2 and the protein concentration was determined using Protein Assay Kit II (Bio Rad cat #500-0002). Aliquots were stored at −80° C. until use.
(§2) Aliquots of membrane suspension were thawed and homogenised with assay buffer 3 (50 mM Tris base, 140 mM NaCl, 1.5 mM MgCl2, 5 mM KCl, 1.5 mM CaCl2, pH 7.4, 37° C.). […] Non-radioactive Compound 1 was diluted on a Beckman Biomek 2000 workstation at 11 serial dilutions ranging from 1 μM to 0.01 nM. GE180 and non-radioactive Compound 2 were diluted at 11 serial dilutions ranging from 100 μM to 1 nM. Total and nonspecific binding assessments were also performed. 160 μL of platelet membranes diluted to 30 μg/mL were added to the assay plate for a final volume of 200 μL/well. Assay plates were incubated at 37° C. for at least one hour with termination of incubation by filtering onto GF/B glass fibre plates (Perkin Elmer; cat #6005177) pre-soaked in 0.1% PEI in saline for 60 minutes. Assay plates were rinsed five to six times with ice cold buffer 4 (50 mM Tris Base, 1.4 mM MgCl2, pH 7.4, 4° C.) on a Perkin Elmer Filtermate 196. Plates were then dried, the bottoms sealed, and 50 μL of MicroScint 20 (Perkin Elmer cat #6013621) was added to each well. After sealing the tops, the plates were allowed to equilibrate for at least 30 minutes and the captured radioactivity was counted on a Perkin Elmer TopCount NTX.
Experiment [2] has as its target T1, TSPO (Homo sapiens, UniProt P30536, T147A). The experiment is described as follows: biochemical.
Procedure: as §1, §2
Experiment [3] deals with T2, TSPO (Homo sapiens, UniProt P30536). Briefly: biochemical.
T2 sequence (P30536 2-169): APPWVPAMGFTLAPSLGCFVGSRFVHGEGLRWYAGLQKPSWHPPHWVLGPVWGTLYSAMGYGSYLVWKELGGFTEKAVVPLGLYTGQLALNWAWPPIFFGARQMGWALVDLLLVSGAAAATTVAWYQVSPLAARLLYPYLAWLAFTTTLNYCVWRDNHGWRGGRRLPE
Procedure: as §1, §2
Experiment [4] deals with TSPO. The settings on record: low:high affinity ratio; resolved enantiomers.
Procedure: as §1
(§3) Aliquots of membrane suspension were thawed and homogenised with assay buffer 3 (50 mM Tris base, 140 mM NaCl, 1.5 mM MgCl2, 5 mM KCl, 1.5 mM CaCl2, pH 7.4, 37° C.). […] Non-radioactive Compound 1 was diluted on a Beckman Biomek 2000 workstation at 11 serial dilutions ranging from 1 μM to 0.01 nM. GE180 and non-radioactive Compound 2 were diluted at 11 serial dilutions ranging from 100 μM to 1 nM. Total and nonspecific binding assessments were also performed. 160 μL of platelet membranes diluted to 30 μg/mL were added to the assay plate for a final volume of 200 μL/well. Assay plates were incubated at 37° C. for at least one hour with termination of incubation by filtering onto GF/B glass fibre plates (Perkin Elmer; cat #6005177) pre-soaked in 0.1% PEI in saline for 60 minutes. Assay plates were rinsed five to six times with ice cold buffer 4 (50 mM Tris Base, 1.4 mM MgCl2, pH 7.4, 4° C.) on a Perkin Elmer Filtermate 196. Plates were then dried, the bottoms sealed, and 50 μL of MicroScint 20 (Perkin Elmer cat #6013621) was added to each well. After sealing the tops, the plates were allowed to equilibrate for at least 30 minutes and the captured radioactivity was counted on a Perkin Elmer TopCount NTX. Compound 1 and Compound 2 were used as racemates.
(§4) Compound 1 and Compound 2 were resolved into enantiomers and the competitive binding assay was performed using platelets isolated from the same 4 human donor whole blood samples as described in Example 6.
The target in experiment [5] is T1, TSPO. Briefly: biochemical. The source holds these as a separate data set.
Procedure: as §1, §3, §4
Experiment [6] has as its target T2, TSPO. The experiment is described as follows: biochemical. The source holds these as a separate data set.
Procedure: as §1, §3, §4
In experiment [7] the test system is TSPO. The settings on record: in vitro; LABs versus HABs; cited from earlier work.
Experiment [8] concerns TSPO. The settings on record: versus [11C]PBR28; cited from earlier work.

T1 sequence (P30536 2-169 T147A): as the sequence (P30536 2-169) above, with T146A counted along it

`CCN(Cc1ccccc1)C(=O)[C@H]1CCCc2c1c1ccccc1n2CCF` (racemic) [Compound 1, (S)—N-benzyl-N-ethyl-9-(2-fluoroethyl)-2,3,4,9-tetrahydro-1H-carbazole-4-carboxamide]: the “Low:High” value in the experiment on TSPO [1] was determined as 3.24. Moreover, the inhibitory constant (Ki) is 1.85 nM at TSPO [2] and 5.98 nM at TSPO [3].

On to `CC(C)N(C)C(=O)[C@H]1CCCc2c1c1ccccc1n2CCF` (racemic) [Compound 2, (S)—N-isopropyl-N-methyl-9-(2-fluoroethyl)-2,3,4,9-tetrahydro-1H-carbazole-4-carboxamide], for which the “Low:High” value with TSPO [1] was determined as 1.02. Moreover, the Ki turned out to be 43.8 nM on TSPO [2] and 44.9 nM on TSPO [3].

On to `CCN(CC)C(=O)[C@H]1CCCc2c1c1c(OC)cccc1n2CCF` (stereo in doubt) [GE180, 9-(2-Fluoro-ethyl)-5-methoxy-2,3,4,9-tetrahydro-1H-carbazole-4-carboxylic acid diethylamide, reference compound], for which the “Low:High” value with TSPO [1] is given as 15.44; in the experiment with TSPO [4], 3.

Consider `CCN(Cc1ccccc1)C(=O)[C@H]1CCCc2c1c1ccccc1n2CCF` [Compound 1 E1, (S)—N-benzyl-N-ethyl-9-(2-fluoroethyl)-2,3,4,9-tetrahydro-1H-carbazole-4-carboxamide], for which the figures for the Ki on TSPO [5] and on TSPO [6] were 4 nM and 5 nM, respectively. Moreover, the “Low:High” value in the experiment with TSPO [4] came to 1.

For `CCN(Cc1ccccc1)C(=O)[C@@H]1CCCc2c1c1ccccc1n2CCF` [Compound 1 E2], the Ki at TSPO [5] turned out to be 4 nM; on TSPO [6] it was 125 nM. In the experiment on TSPO [4], the “Low:High” value was determined as 32.

On to `CC(C)N(C)C(=O)[C@H]1CCCc2c1c1ccccc1n2CCF` [Compound 2 E1, (S)—N-isopropyl-N-methyl-9-(2-fluoroethyl)-2,3,4,9-tetrahydro-1H-carbazole-4-carboxamide], for which the Ki was 24 nM at TSPO [5] and 23 nM on TSPO [6]. For the same compound, in the experiment with TSPO [4], the “Low:High” value turned out to be 1.

In the case of `CC(C)N(C)C(=O)[C@@H]1CCCc2c1c1ccccc1n2CCF` [Compound 2 E2], the Ki on TSPO [5] is 83 nM; on TSPO [6] it was 402 nM. Also, in the experiment on TSPO [4], the “Low:High” value is recorded as 5.

For the compound `COc1ccccc1CN(C(C)=O)c1cnccc1Oc1ccccc1` [PBR28, N-(2-methoxybenzyl)-N-(4-phenoxypyridin-3-yl)acetamide, reference compound], the “Low:High” value in the experiment with TSPO [4] is reported as 28.

As to `CCC(C)N(C)C(=O)c1cc2ccccc2c(-c2ccccc2Cl)n1` (stereo not drawn) [PK11195, reference compound], in the experiment on TSPO [4], the “Low:High” value was determined as 1.

As for `COc1ccccc1CN(C(C)=O)c1cnccc1Oc1ccccc1` [[3H]PBR28], the “lower TSPO affinity in LABs than in HABs” value in the experiment on TSPO [7] is given as “more than 10 fold”.

On to `CCC(C)N(C)C(=O)c1cc2ccccc2c(-c2ccccc2Cl)n1` (stereo not drawn) [[11C]PK11195], for which the “in vivo specific binding in monkey brain, lower than that reported for [11C]PBR28” value in the experiment with TSPO [8] was around 80 fold.
